Experimental data from the NIST ThermoML archive (doi:10.1016/j.jct.2016.08.005).
Numbers after ± are expanded uncertainties.

Conditions: Liquid, Vibrating tube method

Cc1ccsc1 [3-methylthiophene]
Conditions	mass density [kg/m3]
283.15 K, 100 kPa	1031.82 ± 0.51
283.15 K, 2000 kPa	1033.26 ± 0.51
283.15 K, 5000 kPa	1035.47 ± 0.51
283.15 K, 7000 kPa	1036.93 ± 0.51
283.15 K, 10000 kPa	1039.07 ± 0.51
283.15 K, 15000 kPa	1042.56 ± 0.51
283.15 K, 20000 kPa	1045.93 ± 0.52
283.15 K, 25000 kPa	1049.2 ± 0.52
283.15 K, 30000 kPa	1052.37 ± 0.52
283.15 K, 35000 kPa	1055.46 ± 0.53
283.15 K, 40000 kPa	1058.46 ± 0.53
283.15 K, 45000 kPa	1061.37 ± 0.54
283.15 K, 50000 kPa	1064.22 ± 0.54
283.15 K, 55000 kPa	1066.97 ± 0.55
283.15 K, 60000 kPa	1069.67 ± 0.56
283.15 K, 65000 kPa	1072.32 ± 0.57
288.15 K, 100 kPa	1026.57 ± 0.51
288.15 K, 2000 kPa	1028.05 ± 0.51
288.15 K, 5000 kPa	1030.34 ± 0.51
288.15 K, 7000 kPa	1031.84 ± 0.51
288.15 K, 10000 kPa	1034.03 ± 0.51
288.15 K, 15000 kPa	1037.61 ± 0.51
288.15 K, 20000 kPa	1041.07 ± 0.51
288.15 K, 25000 kPa	1044.41 ± 0.52
288.15 K, 30000 kPa	1047.65 ± 0.52
288.15 K, 35000 kPa	1050.8 ± 0.52
288.15 K, 40000 kPa	1053.86 ± 0.53
288.15 K, 45000 kPa	1056.84 ± 0.53
288.15 K, 50000 kPa	1059.74 ± 0.54
288.15 K, 55000 kPa	1062.56 ± 0.55
288.15 K, 60000 kPa	1065.32 ± 0.56
288.15 K, 65000 kPa	1068.01 ± 0.56
293.15 K, 100 kPa	1021.31 ± 0.51
293.15 K, 2000 kPa	1022.81 ± 0.51
293.15 K, 5000 kPa	1025.16 ± 0.51
293.15 K, 7000 kPa	1026.7 ± 0.51
293.15 K, 10000 kPa	1028.95 ± 0.51
293.15 K, 15000 kPa	1032.61 ± 0.51
293.15 K, 20000 kPa	1036.16 ± 0.51
293.15 K, 25000 kPa	1039.6 ± 0.52
293.15 K, 30000 kPa	1042.92 ± 0.52
293.15 K, 35000 kPa	1046.15 ± 0.52
293.15 K, 40000 kPa	1049.27 ± 0.53
293.15 K, 45000 kPa	1052.31 ± 0.53
293.15 K, 50000 kPa	1055.28 ± 0.54
293.15 K, 55000 kPa	1058.15 ± 0.54
293.15 K, 60000 kPa	1060.96 ± 0.55
293.15 K, 65000 kPa	1063.7 ± 0.56
298.15 K, 100 kPa	1016 ± 0.51
298.15 K, 2000 kPa	1017.57 ± 0.51
298.15 K, 5000 kPa	1019.98 ± 0.51
298.15 K, 7000 kPa	1021.56 ± 0.51
298.15 K, 10000 kPa	1023.89 ± 0.51
298.15 K, 15000 kPa	1027.64 ± 0.51
298.15 K, 20000 kPa	1031.29 ± 0.51
298.15 K, 25000 kPa	1034.81 ± 0.51
298.15 K, 30000 kPa	1038.2 ± 0.52
298.15 K, 35000 kPa	1041.52 ± 0.52
298.15 K, 40000 kPa	1044.71 ± 0.52
298.15 K, 45000 kPa	1047.82 ± 0.53
298.15 K, 50000 kPa	1050.84 ± 0.53
298.15 K, 55000 kPa	1053.78 ± 0.54
298.15 K, 60000 kPa	1056.65 ± 0.55
298.15 K, 65000 kPa	1059.43 ± 0.55
303.15 K, 100 kPa	1010.72 ± 0.51
303.15 K, 2000 kPa	1012.32 ± 0.51
303.15 K, 5000 kPa	1014.81 ± 0.51
303.15 K, 7000 kPa	1016.43 ± 0.51
303.15 K, 10000 kPa	1018.83 ± 0.51
303.15 K, 15000 kPa	1022.7 ± 0.51
303.15 K, 20000 kPa	1026.42 ± 0.51
303.15 K, 25000 kPa	1030.01 ± 0.51
303.15 K, 30000 kPa	1033.5 ± 0.52
303.15 K, 35000 kPa	1036.87 ± 0.52
303.15 K, 40000 kPa	1040.16 ± 0.52
303.15 K, 45000 kPa	1043.34 ± 0.53
303.15 K, 50000 kPa	1046.42 ± 0.53
303.15 K, 55000 kPa	1049.41 ± 0.54
303.15 K, 60000 kPa	1052.33 ± 0.54
303.15 K, 65000 kPa	1055.16 ± 0.55
308.15 K, 100 kPa	1005.4 ± 0.51
308.15 K, 2000 kPa	1007.04 ± 0.51
308.15 K, 5000 kPa	1009.61 ± 0.51
308.15 K, 7000 kPa	1011.27 ± 0.51
308.15 K, 10000 kPa	1013.72 ± 0.51
308.15 K, 15000 kPa	1017.69 ± 0.51
308.15 K, 20000 kPa	1021.53 ± 0.51
308.15 K, 25000 kPa	1025.22 ± 0.51
308.15 K, 30000 kPa	1028.73 ± 0.51
308.15 K, 35000 kPa	1032.24 ± 0.52
308.15 K, 40000 kPa	1035.59 ± 0.52
308.15 K, 45000 kPa	1038.84 ± 0.52
308.15 K, 50000 kPa	1041.98 ± 0.53
308.15 K, 55000 kPa	1045.05 ± 0.53
308.15 K, 60000 kPa	1048.03 ± 0.54
308.15 K, 65000 kPa	1050.91 ± 0.54
313.15 K, 100 kPa	1000.05 ± 0.51
313.15 K, 2000 kPa	1001.76 ± 0.51
313.15 K, 5000 kPa	1004.39 ± 0.51
313.15 K, 7000 kPa	1006.11 ± 0.51
313.15 K, 10000 kPa	1008.64 ± 0.51
313.15 K, 15000 kPa	1012.71 ± 0.51
313.15 K, 20000 kPa	1016.63 ± 0.51
313.15 K, 25000 kPa	1020.43 ± 0.51
313.15 K, 30000 kPa	1024.08 ± 0.51
313.15 K, 35000 kPa	1027.61 ± 0.51
313.15 K, 40000 kPa	1031.05 ± 0.52
313.15 K, 45000 kPa	1034.35 ± 0.52
313.15 K, 50000 kPa	1037.58 ± 0.52
313.15 K, 55000 kPa	1040.71 ± 0.53
313.15 K, 60000 kPa	1043.73 ± 0.53
313.15 K, 65000 kPa	1046.69 ± 0.54
318.15 K, 100 kPa	994.7 ± 0.51
318.15 K, 2000 kPa	996.44 ± 0.51
318.15 K, 5000 kPa	999.15 ± 0.51
318.15 K, 7000 kPa	1000.93 ± 0.51
318.15 K, 10000 kPa	1003.52 ± 0.51
318.15 K, 15000 kPa	1007.7 ± 0.51
318.15 K, 20000 kPa	1011.74 ± 0.51
318.15 K, 25000 kPa	1015.6 ± 0.51
318.15 K, 30000 kPa	1019.35 ± 0.51
318.15 K, 35000 kPa	1022.99 ± 0.51
318.15 K, 40000 kPa	1026.48 ± 0.52
318.15 K, 45000 kPa	1029.86 ± 0.52
318.15 K, 50000 kPa	1033.15 ± 0.52
318.15 K, 55000 kPa	1036.33 ± 0.53
318.15 K, 60000 kPa	1039.44 ± 0.53
318.15 K, 65000 kPa	1042.45 ± 0.53
323.15 K, 100 kPa	989.3 ± 0.51
323.15 K, 2000 kPa	991.1 ± 0.51
323.15 K, 5000 kPa	993.9 ± 0.51
323.15 K, 7000 kPa	995.72 ± 0.51
323.15 K, 10000 kPa	998.41 ± 0.51
323.15 K, 15000 kPa	1002.71 ± 0.51
323.15 K, 20000 kPa	1006.85 ± 0.51
323.15 K, 25000 kPa	1010.83 ± 0.51
323.15 K, 30000 kPa	1014.66 ± 0.51
323.15 K, 35000 kPa	1018.35 ± 0.51
323.15 K, 40000 kPa	1021.93 ± 0.51
323.15 K, 45000 kPa	1025.4 ± 0.52
323.15 K, 50000 kPa	1028.76 ± 0.52
323.15 K, 55000 kPa	1032.03 ± 0.52
323.15 K, 60000 kPa	1035.18 ± 0.53
323.15 K, 65000 kPa	1038.24 ± 0.53
328.15 K, 100 kPa	983.88 ± 0.51
328.15 K, 2000 kPa	985.74 ± 0.51
328.15 K, 5000 kPa	988.63 ± 0.51
328.15 K, 7000 kPa	990.51 ± 0.51
328.15 K, 10000 kPa	993.26 ± 0.51
328.15 K, 15000 kPa	997.7 ± 0.51
328.15 K, 20000 kPa	1001.93 ± 0.51
328.15 K, 25000 kPa	1006 ± 0.51
328.15 K, 30000 kPa	1009.94 ± 0.51
328.15 K, 35000 kPa	1013.73 ± 0.51
328.15 K, 40000 kPa	1017.38 ± 0.51
328.15 K, 45000 kPa	1020.94 ± 0.51
328.15 K, 50000 kPa	1024.36 ± 0.52
328.15 K, 55000 kPa	1027.68 ± 0.52
328.15 K, 60000 kPa	1030.89 ± 0.52
328.15 K, 65000 kPa	1034.03 ± 0.53
333.15 K, 100 kPa	978.47 ± 0.51
333.15 K, 2000 kPa	980.39 ± 0.51
333.15 K, 5000 kPa	983.35 ± 0.51
333.15 K, 7000 kPa	985.3 ± 0.51
333.15 K, 10000 kPa	988.13 ± 0.51
333.15 K, 15000 kPa	992.67 ± 0.51
333.15 K, 20000 kPa	997.03 ± 0.51
333.15 K, 25000 kPa	1001.22 ± 0.51
333.15 K, 30000 kPa	1005.22 ± 0.51
333.15 K, 35000 kPa	1009.12 ± 0.51
333.15 K, 40000 kPa	1012.87 ± 0.51
333.15 K, 45000 kPa	1016.49 ± 0.51
333.15 K, 50000 kPa	1020 ± 0.51
333.15 K, 55000 kPa	1023.38 ± 0.52
333.15 K, 60000 kPa	1026.67 ± 0.52
333.15 K, 65000 kPa	1029.88 ± 0.52
338.15 K, 100 kPa	972.98 ± 0.51
338.15 K, 2000 kPa	974.96 ± 0.51
338.15 K, 5000 kPa	978.01 ± 0.51
338.15 K, 7000 kPa	980.02 ± 0.51
338.15 K, 10000 kPa	982.95 ± 0.51
338.15 K, 15000 kPa	987.63 ± 0.51
338.15 K, 20000 kPa	992.12 ± 0.51
338.15 K, 25000 kPa	996.41 ± 0.51
338.15 K, 30000 kPa	1000.53 ± 0.51
338.15 K, 35000 kPa	1004.49 ± 0.51
338.15 K, 40000 kPa	1008.33 ± 0.51
338.15 K, 45000 kPa	1012.04 ± 0.51
338.15 K, 50000 kPa	1015.62 ± 0.51
338.15 K, 55000 kPa	1019.08 ± 0.51
338.15 K, 60000 kPa	1022.44 ± 0.52
338.15 K, 65000 kPa	1025.7 ± 0.52
